Source: ChEMBL document CHEMBL1201862, “PubChem BioAssay data set” (2004)
Calls of active or inactive are those of the source.

How the values were obtained:
cells = format: functional
[1] = molecular target: Nuclear receptor subfamily 5 group A member 2 (Homo sapiens, UniProt O00482); format: functional, cell-based;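 note: HEK293T cells transfected with LRH-1 and a StAR promoter luciferase reporter; potency for inhibitors that lower LRH-1 driven reporter light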
Steroidogenic factor 1 = Steroidogenic factor 1 (Homo sapiens, UniProt Q13285); experiment: Counterscreen for inverse agonists of the liver receptor homolog-1 (LRH-1; NR5A2): Luminescence-based cell-based high throughput dose response assay to identify inverse agonists of the Steroidogenic Factor 1 Nuclear Receptor (SF1; NR5A1).; format: functional
Sequence of Steroidogenic factor 1 (Q13285 whole entry): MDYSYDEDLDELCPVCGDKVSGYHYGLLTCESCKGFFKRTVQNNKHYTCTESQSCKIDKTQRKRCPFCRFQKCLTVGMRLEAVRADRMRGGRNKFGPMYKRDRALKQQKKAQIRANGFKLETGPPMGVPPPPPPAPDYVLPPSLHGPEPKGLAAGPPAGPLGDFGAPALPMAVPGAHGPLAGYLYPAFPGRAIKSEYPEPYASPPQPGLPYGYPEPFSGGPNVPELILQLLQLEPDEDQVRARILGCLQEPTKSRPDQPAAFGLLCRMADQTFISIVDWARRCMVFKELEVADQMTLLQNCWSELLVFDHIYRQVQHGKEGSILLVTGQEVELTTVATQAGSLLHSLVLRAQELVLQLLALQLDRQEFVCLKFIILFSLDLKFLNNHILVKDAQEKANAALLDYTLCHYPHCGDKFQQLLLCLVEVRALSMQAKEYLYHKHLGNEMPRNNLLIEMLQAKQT

[2] = nonselective StAR promoter luciferase inhibitors – cell-based, luminescence, luciferase reporter, counter-screen for LRH-1 inverse agonist project, dose response (AID 651969); format: functional
[3] = molecular target: T1, Corticotropin-releasing factor receptor 2/Corticotropin-releasing factor-binding protein (Homo sapiens, UniProt P24387+Q13324); experiment: activators of CRF receptor 2 with binding protein – uHTS hits, confirmation (AID 602473); format: functional; conditions: read-out: EC50_Mean
T1 sequence (Q13324 whole entry): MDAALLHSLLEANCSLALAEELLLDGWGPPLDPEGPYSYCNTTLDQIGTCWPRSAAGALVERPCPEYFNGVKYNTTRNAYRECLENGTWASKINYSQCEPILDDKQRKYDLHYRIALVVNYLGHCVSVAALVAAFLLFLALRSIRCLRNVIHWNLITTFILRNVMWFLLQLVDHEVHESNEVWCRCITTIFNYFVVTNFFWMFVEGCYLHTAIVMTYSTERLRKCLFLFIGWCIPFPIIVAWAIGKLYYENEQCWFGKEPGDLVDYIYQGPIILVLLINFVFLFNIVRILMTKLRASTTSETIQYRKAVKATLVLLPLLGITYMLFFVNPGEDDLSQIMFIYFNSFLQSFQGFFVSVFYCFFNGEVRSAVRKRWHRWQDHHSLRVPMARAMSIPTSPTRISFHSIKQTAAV
T1 sequence (P24387 whole entry): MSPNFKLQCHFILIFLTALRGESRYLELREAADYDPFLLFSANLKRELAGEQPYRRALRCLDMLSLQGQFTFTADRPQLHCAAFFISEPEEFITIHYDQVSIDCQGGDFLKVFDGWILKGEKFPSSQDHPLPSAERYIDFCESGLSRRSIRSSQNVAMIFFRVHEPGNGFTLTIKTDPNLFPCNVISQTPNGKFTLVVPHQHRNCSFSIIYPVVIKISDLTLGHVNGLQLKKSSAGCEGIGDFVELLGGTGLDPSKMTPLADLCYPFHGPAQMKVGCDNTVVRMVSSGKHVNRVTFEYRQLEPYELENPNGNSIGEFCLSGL

HeLa = experiment: viability loss in HeLa cells – cell-based, ATP luminescence, cherry-pick samples, cytotoxicity control, dose response (AID 687004); format: functional; conditions: Homo sapiens
[4] = molecular target: T1, Corticotropin-releasing factor receptor 2/Corticotropin-releasing factor-binding protein; experiment: Dose Response confirmation of uHTS hits for small molecule antagonists of the CRF-binding protein and CRF-R2 receptor complex.; format: functional; conditions: read-out: IC50_Mean
[5] = Counterscreen for inhibitors of Trypanosoma brucei methionyl tRNA synthetase (MetRS): Luminescence-based cell-based high throughput dose response assay to identify compounds that are cytotoxic to Jurkat human T lymphocyte cells.; format: functional
[6] = molecular target: T2, Methionyl-tRNA synthetase, putative (Trypanosoma brucei brucei, UniProt Q38C91); format: functional, Trypanosoma brucei brucei strain 927/4 GUTat10.1;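 note: Read-out by fluorescence polarization, run as a confirmatory high-throughput counterscreen; potency of MetRS inhibitors measured by reduced AMP formation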
T2 sequence (Q38C91 whole entry): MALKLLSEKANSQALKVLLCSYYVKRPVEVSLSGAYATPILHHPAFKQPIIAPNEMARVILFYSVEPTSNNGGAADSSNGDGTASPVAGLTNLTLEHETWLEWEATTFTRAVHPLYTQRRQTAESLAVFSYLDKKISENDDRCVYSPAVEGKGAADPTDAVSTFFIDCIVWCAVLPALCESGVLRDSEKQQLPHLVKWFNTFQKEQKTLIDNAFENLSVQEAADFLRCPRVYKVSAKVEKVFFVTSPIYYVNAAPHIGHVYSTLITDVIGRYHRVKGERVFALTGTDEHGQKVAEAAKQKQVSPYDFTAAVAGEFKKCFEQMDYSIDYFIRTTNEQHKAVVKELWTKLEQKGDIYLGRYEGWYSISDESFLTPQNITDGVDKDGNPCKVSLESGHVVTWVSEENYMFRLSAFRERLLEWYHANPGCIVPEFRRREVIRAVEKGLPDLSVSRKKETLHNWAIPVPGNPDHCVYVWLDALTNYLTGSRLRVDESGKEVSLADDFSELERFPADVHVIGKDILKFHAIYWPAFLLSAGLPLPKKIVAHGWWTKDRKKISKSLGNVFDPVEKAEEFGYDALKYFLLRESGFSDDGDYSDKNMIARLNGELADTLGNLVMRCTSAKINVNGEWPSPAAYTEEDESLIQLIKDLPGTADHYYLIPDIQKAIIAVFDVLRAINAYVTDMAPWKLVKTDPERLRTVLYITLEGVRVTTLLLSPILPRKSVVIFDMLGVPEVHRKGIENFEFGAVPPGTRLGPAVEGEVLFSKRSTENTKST

[7] = molecular target: Fructose-bisphosphate aldolase (Mycobacterium tuberculosis, UniProt P9WQA3); experiment: Fluorescence-based biochemical high throughput dose response assay for inhibitors of the fructose-bisphosphate aldolase (FBA) of M. tuberculosis.; format: functional
Sequence of Fructose-bisphosphate aldolase (P9WQA3 whole entry): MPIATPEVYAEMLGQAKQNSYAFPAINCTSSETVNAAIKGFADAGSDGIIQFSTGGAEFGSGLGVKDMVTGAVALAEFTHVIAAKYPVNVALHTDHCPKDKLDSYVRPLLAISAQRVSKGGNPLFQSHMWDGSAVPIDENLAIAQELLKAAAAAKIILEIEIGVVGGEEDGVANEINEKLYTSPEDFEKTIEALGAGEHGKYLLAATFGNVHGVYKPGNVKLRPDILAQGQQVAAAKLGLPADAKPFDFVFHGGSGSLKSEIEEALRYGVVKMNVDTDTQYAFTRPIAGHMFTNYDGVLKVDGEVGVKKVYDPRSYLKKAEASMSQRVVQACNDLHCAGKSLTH

Albumin = Albumin (Bos taurus, UniProt P02769); experiment: Counterscreen for inhibitors of T-cell receptor (TCR)-CD3 interaction: Fluorescence-based biochemical high throughput dose response assay to identify inhibitors of T-cell receptor (TCR)-CD3 interaction using a TAMRA-labeled BSA probe.; format: functional
Sequence of Albumin (P02769 whole entry, the tested form may be a part): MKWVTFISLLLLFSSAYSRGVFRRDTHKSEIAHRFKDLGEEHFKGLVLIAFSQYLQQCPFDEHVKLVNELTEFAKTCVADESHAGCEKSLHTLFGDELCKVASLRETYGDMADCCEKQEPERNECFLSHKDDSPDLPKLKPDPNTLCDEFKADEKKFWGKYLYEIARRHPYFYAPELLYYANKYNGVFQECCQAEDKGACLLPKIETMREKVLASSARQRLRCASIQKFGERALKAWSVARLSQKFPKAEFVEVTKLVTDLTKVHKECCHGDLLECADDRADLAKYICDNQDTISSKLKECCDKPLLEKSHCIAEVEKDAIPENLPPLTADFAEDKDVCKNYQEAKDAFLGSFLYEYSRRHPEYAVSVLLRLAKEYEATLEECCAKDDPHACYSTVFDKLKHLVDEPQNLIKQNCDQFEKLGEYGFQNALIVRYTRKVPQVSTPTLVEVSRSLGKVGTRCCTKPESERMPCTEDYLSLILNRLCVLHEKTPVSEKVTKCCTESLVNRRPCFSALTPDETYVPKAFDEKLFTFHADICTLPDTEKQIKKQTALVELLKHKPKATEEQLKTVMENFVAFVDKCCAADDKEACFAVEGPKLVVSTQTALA

[8] = blockers of HIV-1 envelope-mediated cell-cell fusion – cherry-pick, dose response (AID 652057); format: functional, cell-based
[9] = HIV-1 AD8 envelope cell-cell fusion blockers – cherry-pick, dose response (AID 652062); format: functional, cell-based;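 note: luciferase signal from cell-cell fusion driven by HIV-1 clade B AD8 Env; potency is for inhibitors of fusion seen as a drop in luminescence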
[10] = viability loss in HeLa cells – cytotoxicity control for MgcRacGAP inhibitor project, dose response (AID 624300); format: functional
[11] = blockers of HIV-1 ZM109 envelope-driven cell-cell fusion – HeLa effector, CEM target cells, luciferase, cherry-pick, dose response (AID 652058); format: functional, cell-based;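 note: luciferase signal from HIV-1 Env mediated cell-cell fusion of effector and target cells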
[12] = viability loss in CEM21 cells – cell-based, CellTiter-Glo luminescence, cherry-picked, cytotoxicity control for viral fusion inhibitor project, dose response (AID 652042); format: functional;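 note: potency for signal decrease meaning cytotoxicity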
[13] = off-target signal loss in HeLa-CEM21 co-culture – HeLa F-luc CTL cells, cherry-picked, counter-screen for HIV-1 Env fusion inhibitor project, dose response (AID 652040); format: functional, cell-based;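 note: potency for signal decrease marking cytotoxic or nonspecific inhibition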
[14] = molecular target: T3, Sentrin-specific protease 1 (Homo sapiens, UniProt Q9P0U3); experiment: SENP1 catalytic domain blockers, concentration series – biochemical, kinetic FRET, dose response (AID 651697); format: functional; conditions: read-out: IC50_Mean
T3 sequence (Q9P0U3 whole entry): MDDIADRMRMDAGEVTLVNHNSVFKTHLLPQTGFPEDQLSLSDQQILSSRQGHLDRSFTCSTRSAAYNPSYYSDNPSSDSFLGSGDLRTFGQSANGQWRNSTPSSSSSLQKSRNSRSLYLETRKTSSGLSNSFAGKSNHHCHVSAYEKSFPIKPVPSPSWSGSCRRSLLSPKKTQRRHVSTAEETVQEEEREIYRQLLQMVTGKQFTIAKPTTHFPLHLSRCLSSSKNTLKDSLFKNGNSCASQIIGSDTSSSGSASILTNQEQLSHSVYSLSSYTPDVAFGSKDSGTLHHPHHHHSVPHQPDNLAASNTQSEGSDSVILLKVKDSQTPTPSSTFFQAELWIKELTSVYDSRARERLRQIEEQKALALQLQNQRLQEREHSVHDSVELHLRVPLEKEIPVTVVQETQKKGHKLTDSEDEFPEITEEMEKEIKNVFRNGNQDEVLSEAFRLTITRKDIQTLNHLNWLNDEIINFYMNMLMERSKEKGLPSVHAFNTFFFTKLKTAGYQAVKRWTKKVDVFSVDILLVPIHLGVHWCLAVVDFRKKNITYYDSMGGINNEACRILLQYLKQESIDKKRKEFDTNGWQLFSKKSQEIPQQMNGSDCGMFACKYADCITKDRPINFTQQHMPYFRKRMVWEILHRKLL

[15] = molecular target: T3, Sentrin-specific protease 1; experiment: Dose response confirmation of small molecule inhibitors of the catalytic domain of the SUMO protease, SENP1 in a FRET assay.; format: functional; conditions: read-out: IC50_Mean
[16] = inhibition of ADAM10 peptide cleavage – biochemical, FRET peptide substrate, recombinant human ADAM10, selectivity assay for ADAM17 exosite inhibitor project, dose response (AID 743259);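 note: ADAM10 enzyme cleaving a FRET peptide substrate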
[17] = molecular target: T4, Disintegrin and metalloproteinase domain-containing protein 17 (Homo sapiens, UniProt P78536); experiment: exosite inhibitors of ADAM17, dose response, biochemical (AID 743260)
T4 sequence (P78536 whole entry, the tested form may be a part): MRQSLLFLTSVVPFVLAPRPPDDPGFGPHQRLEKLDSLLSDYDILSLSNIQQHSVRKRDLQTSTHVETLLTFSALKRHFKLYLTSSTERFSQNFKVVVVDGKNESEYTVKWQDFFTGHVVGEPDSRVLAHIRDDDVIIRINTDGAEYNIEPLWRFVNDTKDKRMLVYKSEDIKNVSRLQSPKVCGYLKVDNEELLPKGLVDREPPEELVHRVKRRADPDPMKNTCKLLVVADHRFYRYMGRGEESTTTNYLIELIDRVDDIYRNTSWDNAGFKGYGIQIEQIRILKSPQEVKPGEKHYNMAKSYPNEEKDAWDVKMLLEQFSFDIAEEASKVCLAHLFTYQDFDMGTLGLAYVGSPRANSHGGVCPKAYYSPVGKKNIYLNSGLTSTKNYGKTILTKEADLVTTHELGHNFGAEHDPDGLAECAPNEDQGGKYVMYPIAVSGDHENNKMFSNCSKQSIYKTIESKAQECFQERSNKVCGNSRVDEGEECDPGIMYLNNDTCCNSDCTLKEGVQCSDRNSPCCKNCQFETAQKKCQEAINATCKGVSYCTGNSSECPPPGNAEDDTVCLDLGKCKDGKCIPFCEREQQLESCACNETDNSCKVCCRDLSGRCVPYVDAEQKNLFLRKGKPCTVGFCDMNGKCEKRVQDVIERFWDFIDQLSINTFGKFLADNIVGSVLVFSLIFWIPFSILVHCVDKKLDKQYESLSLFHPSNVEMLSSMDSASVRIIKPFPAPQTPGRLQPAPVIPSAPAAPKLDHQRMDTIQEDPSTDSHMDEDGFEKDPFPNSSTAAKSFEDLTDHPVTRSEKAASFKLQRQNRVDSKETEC

[18] = molecular target: DNA damage-inducible transcript 3 protein (Mus musculus, UniProt P35639); format: functional, Cricetulus griseus
Sequence of DNA damage-inducible transcript 3 protein (P35639 whole entry): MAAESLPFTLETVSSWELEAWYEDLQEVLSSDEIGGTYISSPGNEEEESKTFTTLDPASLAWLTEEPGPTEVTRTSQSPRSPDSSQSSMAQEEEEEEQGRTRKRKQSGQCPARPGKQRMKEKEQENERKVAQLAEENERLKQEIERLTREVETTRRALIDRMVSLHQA

[19] = potency of ADAM10 substrate cleavage blockers – biochemical, QFRET, dose response (AID 743254);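 note: ADAM10 enzyme with the DM2 quenched FRET peptide as substrate; EDANS fluorescence gain as the protease cuts the substrate; inhibitor potency against ADAM10 proteolytic activity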
[20] = molecular target: T5, Probable nicotinate-nucleotide adenylyltransferase (Staphylococcus aureus (strain N315), UniProt P65502); format: functional, Staphylococcus aureus subsp. aureus N315; conditions: read-out: IC50_Mean;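 for IC50 Mean: confirmatory dose-response retesting of NadD inhibitor hits first found in an ultra-high-throughput screen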
T5 sequence (P65502 whole entry): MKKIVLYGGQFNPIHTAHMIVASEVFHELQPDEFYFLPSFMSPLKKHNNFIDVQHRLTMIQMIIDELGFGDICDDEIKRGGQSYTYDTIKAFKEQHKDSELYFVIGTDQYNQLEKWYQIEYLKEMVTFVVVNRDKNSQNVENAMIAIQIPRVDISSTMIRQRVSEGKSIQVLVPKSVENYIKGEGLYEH

[21] = molecular target: T5, Probable nicotinate-nucleotide adenylyltransferase; format: functional, Staphylococcus aureus subsp. aureus N315
[22] = molecular target: T6, Latent membrane protein 1 (Human herpesvirus 4 (strain B95-8), UniProt P03230); experiment: LMP1 TES1 pathway selectivity over dsRED control – imaging, HEK293T, dual-color eGFP/dsRED, cherry-picks, selectivity assay for LMP1 NF-kB inhibitor project, dose response (AID 588398); format: functional, cell-based
T6 sequence (P03230 whole entry): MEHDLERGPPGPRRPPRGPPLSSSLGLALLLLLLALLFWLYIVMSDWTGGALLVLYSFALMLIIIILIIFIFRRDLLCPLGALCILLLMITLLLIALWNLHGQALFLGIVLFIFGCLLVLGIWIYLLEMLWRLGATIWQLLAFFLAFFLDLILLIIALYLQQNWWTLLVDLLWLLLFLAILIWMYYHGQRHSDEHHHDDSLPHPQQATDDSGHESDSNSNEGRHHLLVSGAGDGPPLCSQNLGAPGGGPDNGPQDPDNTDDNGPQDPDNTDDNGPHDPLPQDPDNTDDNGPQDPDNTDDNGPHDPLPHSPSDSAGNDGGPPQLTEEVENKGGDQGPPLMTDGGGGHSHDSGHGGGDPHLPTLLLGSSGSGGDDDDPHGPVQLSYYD

[23] = molecular target: T4, Disintegrin and metalloproteinase domain-containing protein 17; experiment: inhibition of ADAM17 substrate cleavage – biochemical, quenched FRET substrate, counter-screen for ADAM10 exosite inhibitor project, dose response (AID 743253)

Sequence of Nuclear receptor subfamily 5 group A member 2 (O00482 whole entry): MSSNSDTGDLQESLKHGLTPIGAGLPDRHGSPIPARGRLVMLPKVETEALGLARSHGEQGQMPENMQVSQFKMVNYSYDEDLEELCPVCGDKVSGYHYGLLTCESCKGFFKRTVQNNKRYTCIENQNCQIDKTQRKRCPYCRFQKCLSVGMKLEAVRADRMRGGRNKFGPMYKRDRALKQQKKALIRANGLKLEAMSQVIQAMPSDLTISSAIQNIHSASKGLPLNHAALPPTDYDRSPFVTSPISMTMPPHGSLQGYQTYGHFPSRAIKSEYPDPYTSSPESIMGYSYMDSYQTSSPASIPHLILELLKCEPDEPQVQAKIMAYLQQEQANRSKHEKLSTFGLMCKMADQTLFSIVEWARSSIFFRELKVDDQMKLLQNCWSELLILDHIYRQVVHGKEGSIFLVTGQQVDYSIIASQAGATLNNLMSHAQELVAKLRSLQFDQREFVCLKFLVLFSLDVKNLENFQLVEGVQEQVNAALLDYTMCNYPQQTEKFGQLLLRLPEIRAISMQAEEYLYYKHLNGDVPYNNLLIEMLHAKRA

Compound: Cc1ccc(NC(=O)COC(=O)C(NS(=O)(=O)c2ccc(Cl)cc2)C(C)O)cc1C (configuration not stated)
- IC50 (cells): 6.57 µM (active)
- IC50 [1]: 12 µM (inactive)
- IC50 (Steroidogenic factor 1): 2.17 µM (active)
- IC50 [2]: 35.9 µM (inactive)

Compound: COC(=O)C1=C(C)N(Cc2ccccc2)C(=S)N[C@H]1c1cccc(F)c1
- EC50 [3]: > 53 µM (inactive)
- AC50 (HeLa): > 52 µM (inactive)
- IC50 [4]: > 47.1 µM (inactive)

Compound: O=C(CSc1nc2cc(Cl)ccc2[nH]1)c1c[nH]c2ccccc12
- IC50 [5]: 83.3 µM (inactive)

Compound: O=C(CSc1nc2ccc(Cl)cc2[nH]1)c1c[nH]c2ccccc12
- IC50 [6]: 39.5 µM (inactive)

Compound: CCCC(C(=O)Nc1ccc2c(C)cc(=O)oc2c1)c1ccccc1 (configuration not stated)
- IC50 [7]: 1.23 µM (active)

Compound: O=C(NNC(=S)NC(=O)c1cccc([N+](=O)[O-])c1)c1ccc(O)cc1
- IC50 (Albumin): > 94 µM (inactive)

Compound: CCc1ccc(CNCCc2c[nH]c3ccccc23)cc1
- AC50 [8]: 4.4 µM (active)
- AC50 [9]: 12.2 µM (active)
- CC50 [10]: 100 µM (active)
- AC50 [11]: 4.01 µM (active)
- AC50 [12]: 31.7 µM (active)
- AC50 [13]: 6.36 µM (active)

Compound: CC1=C(C(N)=O)S(=O)(=O)c2ccccc21
- IC50 [14]: 19.6 µM (active)
- IC50 [15]: 23 µM (inactive)

Compound: COc1ccccc1NC(=O)c1c(Nc2ccccc2C)sc(C(=O)Nc2cccc(Cl)c2)c1N
- IC50 [16]: > 69.5 µM (inactive)
- IC50 [17]: > 69.5 µM (inactive)
- Absolute IC50 (CHOP) [18]: 10 µM
- IC50 [19]: > 7.73 µM (active)
- IC50 [20]: 80 µM (inactive)
- IC50 [21]: 26 µM (active)
- AC50 [22]: 21.3 µM (active)
- IC50 [23]: > 69.5 µM (inactive)

Compound: N#CC1=C(C2CC2)CC(c2ccccc2)C(C#N)=C1N (configuration not stated)
- IC50 [7]: > 10 µM (inactive)

Compound: COc1cc(C(O)c2nc(-c3ccc4ccccc4c3)cs2)ccc1F (configuration not stated)
- IC50 [19]: 10.4 µM (inactive)
- IC50 [23]: > 69.5 µM (inactive)

Compound: COc1ccc(/C=N/N2C(=O)CSC2=S)cc1Br
- IC50 [14]: 19.3 µM (active)
- IC50 [15]: 9.69 µM (active)
